The text below walks through data of PMC3942691, “The Dipeptide Monoester Prodrugs of Floxuridine and Gemcitabine—Feasibility of Orally Administrable Nucleoside Analogs” (Pharmaceuticals, 2014).

Read-outs that look alike come from different tables or passages of the source. Marks after values point to notes of the source that are not given here. A value given as a limit tells only on which side of the number the result lay.

Data set [1] relates to Caco-2 cell homogenates. Description: Enzymatic stability in Caco-2 cell homogenates. In kind it is in vitro ADME. The note with it: 500 µg/mL protein, 37 °C. The method, then: (§1) Confluent Caco-2, Panc-1, and AsPC-1cells were rinsed twice with phosphate buffered saline (PBS). The cells were lysed with phosphate buffer (pH 7.4) by ultrasonication (Micro ultrasonic cell disrupter Model KT40, Kontes, Vineland, NJ, USA), and pelleted by centrifugation for 5 min at 1,000 × g. Protein amount was quantified with the Bio-Rad (Hercules, CA, USA) DC Protein Assay using bovine serum albumin as a standard. The amount of protein was adjusted to 500 µg/mL and hydrolysis reactions were carried out in 96-well plates (Corning). […] The filtrate was then analyzed via reverse-phase HPLC.
(§2) The stability samples of prodrugs and their metabolites, and perfusion samples were determined on an Agilent HPLC system (Agilent Technologies, Santa Clara, CA, USA). […] Standard curves generated for each prodrug and their parent drug were utilized for quantitation of integrated area under peaks. […]
(§3) The experiments concerning drug and their prodrug stability were performed at 37 °C in 0.01 N HCl, SIF (pH 6.0), and pH 7.4 phosphate buffer. […] Prodrug metabolites such as floxuridine, 5-fluorouracil (5-FU), gemcitabine, 2′-deoxy-2′,2′-difluorouridine, uracil, and cytosine were monitored along with prodrug disappearance in this experiment.

Data set [2] is described as follows: Drug concentration and species in mouse plasma after in situ perfusion. In kind it is in vivo. The note with it: for parent drug, share of totally observed amount in plasma: parent drug perfused; for parent drug, share of totally observed amount in plasma / first metabolite (5-FU or cytosine) in plasma: mouse plasma after in situ perfusion; for prodrug form, share of totally observed amount in plasma: mouse plasma at 2 h following in situ perfusion. The method, then: All animal experiments were conducted using protocols approved by the University of Michigan Committee of Use and Care of Animals (UCUCA). Female BALB/c mice (Charles River, IN, USA) weighing 20–25 g were used for all perfusion studies. Prior to each experiment, mice were fasted overnight with free access to water.
At the start of the study, the test compound (100 µM) in perfusion buffer (pH 6.0) including phenol red was perfused through the intestinal segment (Watson-Marlow Pump 323S, Watson-Marlow Bredel Inc., Wilimington, MA, USA), at the flow rate of 0.1 mL/min. The perfusion buffer was perfused for 30 min to assure steady-state and samples were taken in every 10 min for 90 min. At the end of perfusion, blood samples were collected by cardiac puncture. Blood samples with heparin were centrifuged at 1,000 × g for 10 min at 4 °C to collect plasma samples for LC-MS analysis. Following the termination of the experiment, the length of each perfused intestinal segment was measured.
The LC-MS analytical method of 5′-mono amino acid ester prodrugs of floxuridine has been reported previously. The LC-MS analysis of dipeptide monoester prodrugs of floxuridine and gemcitabine along with their parent drugs was modified and performed in a similar manner. Briefly, LC-MS analysis of the uptake drug amount was performed in triplicate on LCMS-2010EV (Shimadzu Scientific Instruments, Kyoto, Japan) equipped with an ESI (electrospray ionization) source. The Shimadzu LC-MS system consisting of Shimadzu LC-20AD pumps with DGU-20A in-line vacuum degasser units, and SIL-20A HT autosampler with an InertSustain C-18, 2.1 × 50 mm, 3 µm particle size, (GL Sciences, Torrance, CA, USA) was used for the separation and the effluent from the column was introduced directly to the ionization source. The system was controlled by Shimadzu LCMS solution software (version 3) to collect and process data. All samples were run with Solvent A and Solvent B with Solvent B gradient changing from 0%–90% at a rate of 13.8%/min over a 22 min run. The mobile phase consisted of 0.1% TFA/water (Solvent A) and 0.1% TFA/acetonitrile (Solvent B) for gemcitabine, gemcitabine prodrug and floxuridine prodrug. The mobile phase consisted of 0.1% ammonium hydroxide/water (Solvent A) and 0.1% ammonium hydroxide /acetonitrile (Solvent B) for floxuridine. The ESI probe was operated with a detector voltage of 1.5 kV, CDL temperature of 250 °C, heat block of 200 °C, and nebulizing gas flow of […] in positive mode for gemcitabine prodrugs and their metabolites. The drying gas was N2 delivered at 0.1 MPa.

For data set [3], the system named is Panc-1 cell homogenates. Description: Enzymatic stability in Panc-1 cell homogenates. In kind it is in vitro ADME. The note with it: 500 µg/mL protein, 37 °C. The method, then:
Confluent Caco-2, Panc-1, and AsPC-1cells were rinsed twice with phosphate buffered saline (PBS). The cells were lysed with phosphate buffer (pH 7.4) by ultrasonication (Micro ultrasonic cell disrupter Model KT40, Kontes, Vineland, NJ, USA), and pelleted by centrifugation for 5 min at 1,000 × g. Protein amount was quantified with the Bio-Rad (Hercules, CA, USA) DC Protein Assay using bovine serum albumin as a standard. The amount of protein was adjusted to 500 µg/mL and hydrolysis reactions were carried out in 96-well plates (Corning). Caco-2, Panc-1, and AsPC-1 cell suspensions (250 µL) were placed in triplicate wells, the reactions were started with the addition of substrate, and cells were incubated at 37 °C for 120 min. At the desired time point, sample aliquots (35 µL) were removed and added to acetonitrile (ACN, 150 µL) with 0.1% TFA. The mixtures were filtered with a 0.45 µm filters at 1,000 × g for 10 min at 4 °C. The filtrate was then analyzed via reverse-phase HPLC.
The stability samples of prodrugs and their metabolites, and perfusion samples were determined on an Agilent HPLC system (Agilent Technologies, Santa Clara, CA, USA). The HPLC system consisted of Agilent pumps (1100 series), an Agilent autosampler (1200 series), and an Agilent UV-Vis detector (1100 series) controlled by Chemstation® 32 software (version B.01.03). Samples were resolved in an Agilent Eclipse Plus C18 reverse-phase column (3.5 µm, 4.6 × 75 mm) equipped with a guard column. The mobile phase consisted of 0.1% TFA/water (Solvent A) and 0.1% TFA/acetonitrile (Solvent B) with the solvent B gradient changing from 0%–56% at a rate of […] during a 15 min run for gemcitabine and gemcitabine prodrugs. Standard curves generated for each prodrug and their parent drug were utilized for quantitation of integrated area under peaks. The detection wavelength was 254 nm and spectra were acquired in the 220–380 nm wavelength range. The detection wavelength for phenol red was 430 nm.
as §3

Data set [4] deals with Caco-2, Panc-1, and AsPC-1 cell homogenates. Briefly: Enzymatic stability compared across Caco-2, Panc-1 and AsPC-1 cell homogenates. In kind it is in vitro ADME. The method, then:
as §1
The experiments concerning drug and their prodrug stability were performed at 37 °C in 0.01 N HCl, SIF (pH 6.0), and pH 7.4 phosphate buffer. […] Prodrug metabolites such as floxuridine, 5-fluorouracil (5-FU), gemcitabine, 2′-deoxy-2′,2′-difluorouridine, uracil, and cytosine were monitored along with prodrug disappearance in this experiment. However, the mass balance could not be established because 5-FU, cytosine and uracil were metabolized even further and those metabolites could not be quantified by HPLC [11, 50]. The specific kinetic parameters in drug/prodrug metabolism could not be determined without the mass balance and the data of enzymatic activities and their expression levels because those metabolic activities were simultaneously taken place. […]

Data set [5] has as its system AsPC-1 cell homogenates. The note with it: cited from earlier work.
Data set [6] deals with Caco-2 cell homogenates. The note with it: cited from earlier work.
The nature of data set [7]: Enzymatic stability in Caco-2 cell homogenates. In kind it is in vitro ADME. The note with it: human, Caco-2, pH 7.4; 500 µg/mL protein, 37 °C; read-out: Caco-2 cell homogenates t1/2. Here is the method:
as §1, §2, §3

Take “2′,2′-difluoro-2′-deoxyuridine [Gemcitabine]”: the “Caco-2 cell homogenates t1/2” value in data set [1] was 105.0 ± 6.1 min. Moreover, the “parent drug, share of totally observed amount in plasma” value in data set [2] worked out at 83%. Moreover, the “Panc-1 cell homogenates t1/2” value in data set [3] is on record as over 120 min. In addition, the “degradation in AsPC-1 cells compared with Caco-2 and Panc-1 cells” value in data set [4] is on record as “three- to four- times faster”.
Consider `NC(Cc1ccccc1)C(=O)NC(Cc1ccc(O)cc1)C(=O)OCC1OC(n2cc(F)c(=O)[nH]c2=O)CC1O` [5′-L-Phenylalanyl-L-tyrosyl-floxuridine], for which the “drug concentration in mouse plasma, rank among tested compounds” value in data set [2] (after in situ perfusion) is “highest drug concentration”. Also, in data set [2], the “first metabolite (5-FU or cytosine) in plasma” value is given as “not observed” and the “prodrug form, share of totally observed amount in plasma” value came out at 81%. In data set [5], the “AsPC-1 cell homogenates t1/2” value is reported as 59.7 ± 1.4 ^b min. Moreover, the “Caco-2 cell homogenates t1/2” value in data set [6] is given as 103.8 ± 55.5 ^b min.
For the compound `Nc1ccn(C2OC(COC(=O)C(Cc3ccc(O)cc3)NC(=O)C(N)Cc3ccccc3)C(O)C2(F)F)c(=O)n1` [5′-L-Phenylalanyl-L-tyrosyl-gemcitabine], the half-life in data set [7] came out at 14.7 ± 4.4 min. In addition, in data set [2], the “first metabolite (5-FU or cytosine) in plasma” value is given as “one-third” and the “prodrug form, share of totally observed amount in plasma” value stood at 40%.
For the compound `O=c1[nH]c(=O)n([C@H]2C[C@H](O)[C@@H](CO)O2)cc1F` [Floxuridine, 5-fluoro-2′-deoxyuridine], the “parent drug, share of totally observed amount in plasma” value in data set [2] is given as “only drug observed”. The “degradation in AsPC-1 cells compared with Caco-2 and Panc-1 cells” value in data set [4] is “two- to six-times faster”. The “AsPC-1 cell homogenates t1/2” value in data set [5] is recorded as 6.4 ± 3.2 ^a min. Moreover, the “Caco-2 cell homogenates t1/2” value in data set [6] is given as 14.3 ± 7.0 ^a min.
